According to DBAASP:
Converted amounts (≈) assume the structure as drawn. “And” between values parts separate entries of the source, which are not always exact repeats. Equal entries are not always repeated. Values belong to the compound of their own block, whether it stands above or below them.

Assays:
Test in all cases: ≥ marks a high value that may be exact or a test limit, other limits are often not marked, values filed in µg/mL are converted to µM
[1] = tested on: Streptococcus mutans
[2] = tested on: Escherichia coli ATCC 25922
[3] = tested on: Klebsiella pneumoniae ATCC 13883
[4] = tested on: Pseudomonas aeruginosa PAO1
[5] = tested on: Staphylococcus aureus USA 300
[6] = tested on: Escherichia coli NCTC 10418
[7] = tested on: Bacillus subtilis
[8] = tested on: Escherichia coli
[9] = tested on: Salmonella typhimurium
[10] = tested on: Staphylococcus aureus
[11] = tested on: Acinetobacter baumannii
[12] = tested on: Enterococcus faecium
[13] = tested on: Klebsiella pneumoniae
[14] = tested on: Pseudomonas aeruginosa
[15] = tested on: Acinetobacter baumannii ATCC 19606
[16] = tested on: Candida albicans ATCC 90028
[17] = tested on: Pseudomonas aeruginosa ATCC 27853
[18] = tested on: Staphylococcus aureus ATCC 25923
[19] = tested on: Staphylococcus aureus ATCC 29213
[20] = tested on: Staphylococcus aureus MR

MIC [1]: 21.7 µM (≈ 32 µg/mL)
Compound: CC[C@H](C)[C@H](NC(=O)[C@H](Cc1ccccc1)NC(=O)[C@H](Cc1cnc[nH]1)NC(=O)[C@@H](NC(=O)[C@H](Cc1ccccc1)NC(=O)[C@H](CCC(N)=O)NC(=O)[C@H](CCCCN)NC(=O)[C@@H](N)CC(C)C)C(C)C)C(=O)N[C@@H](Cc1cnc[nH]1)C(=O)N[C@@H](CCCN=C(N)N)C(=O)N[C@@H](Cc1ccccc1)C(N)=O [LKQFVHFIHRF]

MIC [1]: ≥ 224 µM
Compound: NCCCC[C@H](NC(=O)[C@H](Cc1c[nH]c2ccccc12)NC(=O)[C@H](CCCN=C(N)N)NC(=O)[C@H](CCCCN)NC(=O)[C@H](CCCN=C(N)N)NC(=O)[C@H](Cc1c[nH]c2ccccc12)NC(=O)[C@@H](N)CCCN=C(N)N)C(=O)O [RWRKRWK]

MIC [1]: ≥ 87.3 µM
Compound: C[C@H](N)C(=O)N[C@@H](CCC(N)=O)C(=O)N[C@@H](C)C(=O)N[C@@H](C)C(=O)N[C@@H](CCCCN)C(=O)N[C@@H](CCC(N)=O)C(=O)N[C@@H](C)C(=O)N[C@@H](C)C(=O)N[C@@H](CCCCN)C(=O)N[C@@H](C)C(=O)N[C@@H](C)C(=O)N[C@@H](CCCCN)C(=O)N[C@@H](CCC(N)=O)C(=O)N[C@@H](Cc1ccccc1)C(N)=O [AQAAKQAAKAAKQF]

MIC [1]: 4.55 µM (≈ 8 µg/mL)
Compound: CC(C)C[C@H](NC(=O)[C@H](CC(C)C)NC(=O)[C@H](Cc1cnc[nH]1)NC(=O)[C@H](Cc1cnc[nH]1)NC(=O)[C@H](CC(C)C)NC(=O)[C@H](Cc1cnc[nH]1)NC(=O)[C@H](CCCCN)NC(=O)[C@H](CC(C)C)NC(=O)[C@H](CC(C)C)NC(=O)[C@H](CCCCN)NC(=O)[C@H](CCCCN)NC(=O)[C@H](CC(C)C)NC(=O)[C@@H](N)CCCCN)C(=O)N[C@@H](Cc1cnc[nH]1)C(N)=O [KLKKLLKHLHHLLH]

MIC [1]: ≥ 109 µM
Compound: NCCCC[C@H](NC(=O)[C@H](CCCN=C(N)N)NC(=O)[C@H](CCCN=C(N)N)NC(=O)[C@H](Cc1c[nH]c2ccccc12)NC(=O)[C@H](Cc1c[nH]c2ccccc12)NC(=O)[C@H](CCCN=C(N)N)NC(=O)[C@@H](N)CCCN=C(N)N)C(=O)O [RRWWRRK]

MIC [7]: 4 µM (≈ 7.4 µg/mL) | MIC [8]: 8 µM (≈ 14.8 µg/mL) | MIC [9]: 4 µM (≈ 7.4 µg/mL) | MIC [10]: 8 µM (≈ 14.8 µg/mL)
Compound: CC(C)[C@H](NC(=O)CNC(=O)[C@H](CCCN=C(N)N)NC(=O)[C@@H](NC(=O)[C@@H](NC(=O)[C@@H](NC(=O)[C@H](CCCN=C(N)N)NC(=O)CNC(=O)[C@H](Cc1c[nH]c2ccccc12)NC(=O)[C@H](CCCN=C(N)N)NC(=O)[C@@H](NC(=O)[C@@H](NC(=O)[C@@H](NC(=O)CN)C(C)C)C(C)C)C(C)C)C(C)C)C(C)C)C(C)C)C(=O)N[C@@H](CCCN=C(N)N)C(=O)N[C@@H](CCCN=C(N)N)C(N)=O [GVVVRWGRVVVRGVRR]

MIC [15]: ≥ 50.5 µM | MIC [11]: 12.6 µM (≈ 20 µg/mL) | MIC [16]: 2.5 µM (≈ 3.96 µg/mL) | MIC [2]: 0.626 µM (≈ 0.992 µg/mL) | MIC [17]: 1.25 µM (≈ 1.98 µg/mL) | MIC [18]: ≥ 202 µM | MIC [19]: 1.25 µM (≈ 1.98 µg/mL) | MIC [20]: ≥ 202 µM
Compound: CC[C@H](C)[C@H](NC(=O)[C@H](CCCN=C(N)N)NC(=O)[C@H](CCC(N)=O)NC(=O)[C@@H](NC(=O)[C@@H](NC(=O)[C@H](CCCN=C(N)N)NC(=O)[C@@H](N)CCCCN)[C@@H](C)CC)C(C)C)C(=O)N[C@@H](CCCCN)C(=O)N[C@@H](CCCCN)C(=O)N[C@@H](Cc1ccccc1)C(=O)N[C@@H](CC(C)C)C(=O)N[C@@H](CCCN=C(N)N)C(=O)O [KRIVQRIKKFLR]

More lines, now with the values behind:

Compound: CC(C)C[C@H](NC(=O)[C@H](CC(C)C)NC(=O)[C@H](CCCCN)NC(=O)CNC(=O)[C@H](CC(C)C)NC(=O)[C@H](CO)NC(=O)[C@H](CO)NC(=O)[C@H](CC(C)C)NC(=O)CN)C(N)=O [GLSSLGKLL]
MIC [2]: > 25 µM | MIC [3]: 25 µM (≈ 22.2 µg/mL) | MIC [4]: > 25 µM | MIC [5]: 25 µM (≈ 22.2 µg/mL)

Compound: CC(C)C[C@H](NC(=O)[C@H](CC(C)C)NC(=O)[C@H](CCCCN)NC(=O)[C@H](CC(C)C)NC(=O)[C@H](CCCCN)NC(=O)[C@H](CC(C)C)NC(=O)[C@H](CO)NC(=O)[C@H](CC(C)C)NC(=O)[C@H](CC(C)C)NC(=O)[C@H](CC(C)C)NC(=O)[C@H](CO)NC(=O)[C@H](CC(C)C)NC(=O)CN)C(N)=O [GLSLLLSLKLKLL]
MIC [2]: > 25 µM | MIC [3]: 25 µM (≈ 35.2 µg/mL) | MIC [4]: > 25 µM | MIC [5]: 6.2 µM (≈ 8.74 µg/mL)

Compound: C[C@H](NC(=O)CN)C(=O)N1CCC[C@H]1C(=O)N[C@@H](CCCCN)C(=O)NCC(=O)N[C@H]1CSSC[C@@H](C(=O)N[C@@H](CCCCN)C(N)=O)NC(=O)[C@@H]2CCCN2C(=O)[C@H](CCCCN)NC(=O)[C@@H]2CCCN2C(=O)[C@@H]2CCCN2C(=O)[C@H](Cc2ccc(O)cc2)NC(=O)[C@H](CO)NC(=O)[C@H](CCCCN)NC(=O)[C@H]([C@@H](C)O)NC(=O)[C@H](Cc2c[nH]c3ccccc23)NC1=O [GAPKGCWTKSYPPKPCK]
MIC [6]: ≥ 160 µM

Compound: CC[C@H](C)[C@H](NC(=O)CNC(=O)CNC(=O)CNC(=O)[C@H](Cc1cnc[nH]1)NC(=O)[C@H](CC(C)C)NC(=O)[C@H](CC(C)C)NC(=O)[C@H](Cc1cnc[nH]1)NC(=O)[C@H](Cc1cnc[nH]1)NC(=O)[C@H](CC(C)C)NC(=O)[C@H](CCCCN)NC(=O)[C@H](CCCCN)NC(=O)[C@H](CC(C)C)NC(=O)[C@H](CC(C)C)NC(=O)[C@H](CCCN=C(N)N)NC(=O)[C@H](CCCN=C(N)N)NC(=O)[C@H](Cc1c[nH]c2ccccc12)NC(=O)[C@@H](N)CCCN=C(N)N)C(=O)N[C@@H](CCCCN)C(=O)N[C@@H](CCC(N)=O)C(=O)N[C@@H](CC(C)C)C(=O)N[C@@H](CC(C)C)C(=O)N[C@@H](Cc1cnc[nH]1)C(=O)N[C@@H](Cc1ccccc1)C(=O)N[C@@H](Cc1ccccc1)C(=O)N[C@@H](CCC(N)=O)C(=O)N[C@@H](CCCN=C(N)N)C(=O)N[C@@H](Cc1ccccc1)C(N)=O [RWRRLLKKLHHLLHGGGIKQLLHFFQRF]
MIC [1]: 4.52 µM (≈ 16 µg/mL)

Compound: CC(C)C[C@H](NC(=O)[C@H](CC(C)C)NC(=O)[C@H](CCCCN)NC(=O)CNC(=O)[C@H](CC(C)C)NC(=O)[C@H](CC(C)C)NC(=O)[C@H](CO)NC(=O)[C@H](CC(C)C)NC(=O)[C@H](CC(C)C)NC(=O)[C@H](CO)NC(=O)[C@H](CC(C)C)NC(=O)[C@H](C)NC(=O)CN)C(N)=O [GALSLLSLLGKLL]
MIC [2]: 3.1 µM (≈ 4.02 µg/mL) | MIC [3]: 6.2 µM (≈ 8.04 µg/mL) | MIC [4]: 12.5 µM (≈ 16.2 µg/mL) | MIC [5]: 0.78 µM (≈ 1.01 µg/mL)

Compound: CC(C)C[C@H](NC(=O)[C@H](CC(C)C)NC(=O)[C@H](CCCCN)NC(=O)CNC(=O)[C@H](CC(C)C)NC(=O)[C@H](CO)NC(=O)[C@H](CO)NC(=O)[C@H](CC(C)C)NC(=O)[C@H](CC(C)C)NC(=O)CN)C(N)=O [GLLSSLGKLL]
MIC [2]: > 25 µM | MIC [3]: 25 µM (≈ 25 µg/mL) | MIC [4]: > 25 µM | MIC [5]: 25 µM (≈ 25 µg/mL)

Compound: CC[C@H](C)[C@H](NC(=O)[C@@H](NC(=O)[C@H](CO)NC(=O)[C@@H](NC(=O)[C@@H](NC(=O)[C@H](CCCCN)NC(=O)CNC(=O)[C@H](CC(C)C)NC(=O)[C@H](CC(C)C)NC(=O)CNC(=O)CNC(=O)[C@H](CC(C)C)NC(=O)[C@H](CC(C)C)NC(=O)CNC(=O)[C@H](CCCCN)NC(=O)[C@H](CO)NC(=O)[C@@H](NC(=O)[C@H](CCCCN)NC(=O)[C@H](Cc1c[nH]c2ccccc12)NC(=O)[C@H](Cc1c[nH]c2ccccc12)NC(=O)[C@H](CCCCN)NC(=O)[C@H](CCCCN)NC(=O)[C@@H](N)CC(C)C)[C@@H](C)O)C(C)C)[C@@H](C)O)C(C)C)C(=O)N[C@@H](CCCCN)C(=O)O [LKKWWKTSKGLLGGLLGKVTSVIK]
MIC [11]: 2.83 µM and 1 µM | MIC [12]: 1 µM (≈ 2.64 µg/mL) | MIC [8]: 1.41 µM (≈ 3.74 µg/mL) | MIC [13]: 2.83 µM (≈ 7.47 µg/mL) | MIC [14]: 2.83 µM and 2 µM and 5.66 µM | MIC [5]: 5.66 µM (≈ 14.9 µg/mL) | MIC [10]: 2 µM (≈ 5.28 µg/mL)
